Results from publication PMC5356226 (ACS chemical biology, 2016).

Assays:
hGLUT1 [1] = biological target: T1, hGLUT1 (Homo sapiens, UniProt P11166); details: known hGLUT1 inhibitors; cited from earlier work
T1 sequence (P11166 1-492): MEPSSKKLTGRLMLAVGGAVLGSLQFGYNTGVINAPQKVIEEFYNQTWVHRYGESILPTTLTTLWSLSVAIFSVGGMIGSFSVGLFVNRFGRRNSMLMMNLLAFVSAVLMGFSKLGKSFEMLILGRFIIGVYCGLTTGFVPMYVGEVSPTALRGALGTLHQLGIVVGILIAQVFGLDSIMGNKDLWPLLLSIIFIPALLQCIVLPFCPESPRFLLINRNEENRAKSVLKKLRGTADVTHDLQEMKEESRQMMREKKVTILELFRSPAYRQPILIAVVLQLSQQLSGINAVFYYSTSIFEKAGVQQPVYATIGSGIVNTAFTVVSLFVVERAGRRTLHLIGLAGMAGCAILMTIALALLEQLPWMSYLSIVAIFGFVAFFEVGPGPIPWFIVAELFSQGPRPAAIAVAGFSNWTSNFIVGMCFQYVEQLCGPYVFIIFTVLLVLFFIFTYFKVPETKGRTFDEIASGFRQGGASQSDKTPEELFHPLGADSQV

hGLUT1 [2] = biological target: T1, hGLUT1; experiment: [3H]-2-deoxy-D-glucose uptake inhibition assay in CHO-hGLUT1 cells; format: cell-based

| SMILES | LE (ligand efficiency) (hGLUT1 [1]) | IC50 (hGLUT1 [2]) |
| --- | --- | --- |
| C=C[C@@]1(C)CC(=O)[C@]2(O)[C@@]3(C)[C@@H](O)CCC(C)(C)[C@@H]3[C@H](O)[C@H](OC(C)=O)[C@@]2(C)O1 [forskolin] | 0.270 kcal/mol/HA | – |
| C=C1[C@@H](C)[C@H]2[C@H](Cc3ccccc3)NC(=O)[C@]23OC(=O)/C=C/[C@H](O)CCC[C@@H](C)C/C=C/[C@H]3[C@@H]1O [cytochalasin B] | 0.265 kcal/mol/HA | – |
| O=C(CCc1ccc(O)cc1)c1c(O)cc(O)cc1O[C@@H]1O[C@H](CO)[C@@H](O)[C@H](O)[C@H]1O [PUG-5, phlorizin] | – | 23 µM |
